# According to patent publication US20030186898A1, “8- (C-beta-D-glucopyranosyl) -7, 3', 4' -trihydroxyflavone, process of isolation thereof, pharmaceutical composition and method for the treatment of diabetes” (priority 2002, published 2003):
# Test system: 18 h. fasted Wistar rats
# Assay: hypoglycaemic activity in 18 h. fasted Wistar rats
# Format: in vivo
# Procedure: The compound 8-(C-β-D-glucopyranosyl)-7,3′,4′-trihydroxyflavone has been evaluated for hypoglycaemic activity in 18 h. fasted Wistar rats. […] The mean fall recorded was 24 mg/100 ml. blood, from initial mean of 92 to mean of 68 mg/100 ml. blood.
smiles,measurement,setting,value
"O=c1cc(-c2ccc(O)c(O)c2)oc2c([C@@H]3O[C@H](CO)[C@@H](O)[C@H](O)[C@H]3O)c(O)ccc12 [8-(C-β-D-glucopyranosyl)-7,3′,4′-trihydroxyflavone]",hypoglycaemic effect,10 mg/kg p. o.,hypoglycaemic effect was recorded in all the treated rats
same,mean (blood sugar) after treatment,after 10 mg/kg p. o.,68 mg/100 ml. blood
same,initial mean (blood sugar),before treatment with 10 mg/kg p. o.,92 mg/100 ml. blood
same,mean fall (blood sugar),compound at 10 mg/kg p. o.,24 mg/100 ml. blood
